Among the data in patent US12319679B2, “Morpholinyl, piperazinyl, oxazepanyl and diazepanyl O-glycoprotein-2-acetamido-2-deoxy-3-d-glucopyranosidase inhibitors” (BIOGEN MA INC., priority 2018, dated 2025) are IC50 values, retold here.

A value given as a limit tells only on which side of the number the result lay.

The test has as its target T1, Recombinant full length human OGA enzyme (Homo sapiens, UniProt O60502).
T1 construct: Recombinant full length human OGA enzyme was purchased from Origene; purchased Origene
T1 sequence (O60502 1-916): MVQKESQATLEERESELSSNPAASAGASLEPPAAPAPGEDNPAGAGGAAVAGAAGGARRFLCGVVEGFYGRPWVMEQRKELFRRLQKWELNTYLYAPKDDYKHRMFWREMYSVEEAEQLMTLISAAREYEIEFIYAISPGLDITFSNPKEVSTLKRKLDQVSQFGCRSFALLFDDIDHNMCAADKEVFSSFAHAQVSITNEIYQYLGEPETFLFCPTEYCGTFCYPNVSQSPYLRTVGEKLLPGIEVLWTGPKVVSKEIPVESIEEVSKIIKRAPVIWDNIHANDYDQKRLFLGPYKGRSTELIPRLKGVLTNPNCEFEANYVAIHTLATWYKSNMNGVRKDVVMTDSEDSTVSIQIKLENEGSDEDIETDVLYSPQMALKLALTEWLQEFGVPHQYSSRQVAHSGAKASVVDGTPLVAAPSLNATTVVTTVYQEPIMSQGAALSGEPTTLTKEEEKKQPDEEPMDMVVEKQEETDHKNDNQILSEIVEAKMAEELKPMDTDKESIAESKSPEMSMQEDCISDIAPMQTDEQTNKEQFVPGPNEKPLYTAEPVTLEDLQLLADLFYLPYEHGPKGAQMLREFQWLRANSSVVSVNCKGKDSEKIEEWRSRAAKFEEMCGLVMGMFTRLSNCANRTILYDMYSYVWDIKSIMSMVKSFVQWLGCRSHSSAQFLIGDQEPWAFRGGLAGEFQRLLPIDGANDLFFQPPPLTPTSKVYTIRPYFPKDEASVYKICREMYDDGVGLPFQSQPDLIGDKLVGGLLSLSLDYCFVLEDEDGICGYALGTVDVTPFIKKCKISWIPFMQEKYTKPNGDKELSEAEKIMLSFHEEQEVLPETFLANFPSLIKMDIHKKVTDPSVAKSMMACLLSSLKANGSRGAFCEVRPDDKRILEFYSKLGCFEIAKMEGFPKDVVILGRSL
Nature of the test: OGA Enzyme Inhibition Biochemical Assay. Conditions: 1 nM OGA, 100 μM 4-MUGlcNAc (Km), pH 6.4, 90 minutes at room temperature; 10-point dose-response starting from 20 μM. In outline: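 Full-length human OGA (1 nM) with 100 μM 4-MUGlcNAc (Km) in McIlvaine buffer pH 6.4, 0.01% BSA, 90 min at room temperature, then quenched with glycine pH 10. Fluorescence at Ex 355/Em 460 nm; 10-point 4-fold series from 20 μM, four-parameter variable-slope fit.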
With `CC(=O)Nc1ncc(CN2CCN(C)[C@@H](Cc3cc(C)nc(C)c3)C2)s1` [Example 4-4, (S)—N-(5-((3-((2,6-dimethylpyridin-4-yl)methyl)-4-methylpiperazin-1-yl)methyl)thiazol-2-yl)acetamide], the IC50 (in general, the concentration that inhibits the measured activity by half) came to 0.2 µM. In the case of `CC(=O)Nc1ncc(CN2CCN(C)[C@H](Cc3ccnc(C)c3)C2)s1` [Example 4-9, (R)—N-(5-((4-methyl-3-((2-methylpyridin-4-yl)methyl)piperazin-1-yl)methyl)thiazol-2-yl)acetamide] it was over 20 µM. In the case of `CC(=O)Nc1ncc(CN2CCN(C)[C@@H](Cc3ccnc(C)c3)C2)s1` [Example 4-10, (S)—N-(5-((4-methyl-3-((2-methylpyridin-4-yl)methyl)piperazin-1-yl)methyl)thiazol-2-yl)acetamide] it was 0.66 µM; in that of `CC(=O)Nc1ncc(CN2CCN(C)[C@H](Cc3ccc(C)nc3)C2)s1` [Example 4-15, (R)—N-(5-((4-methyl-3-((6-methylpyridin-3-yl)methyl)piperazin-1-yl)methyl)thiazol-2-yl)acetamide], over 20 µM; in that of `CC(=O)Nc1ncc(CN2CCN(C)[C@@H](Cc3ccc(C)nc3)C2)s1` [Example 4-16, (S)—N-(5-((4-methyl-3-((6-methylpyridin-3-yl)methyl)piperazin-1-yl)methyl)thiazol-2-yl)acetamide], 2 µM.
